According to publication PMC10793205, “Differential transmetallation of complexes of the anti-cancer thiosemicarbazone, Dp4e4mT: effects on anti-proliferative efficacy, redox activity, oxy-myoglobin and oxy-hemoglobin oxidation” (Chemical Science, 2023):
Entries after “also recorded” stand apart in the source; their conditions may differ.

How the values were obtained:
H2DCF = experiment: Redox activity: H2DCF oxidation to DCF (cell-free, L-cysteine/H2O2); type: biochemical; details: for DCF fluorescence (H2DCF oxidation) of agent alone: 10 μM, pH 7.4 and pH 5, no added CuCl2; for DCF fluorescence (H2DCF oxidation) after addition of CuCl2: 10 μM complex + CuCl2, pH 7.4 and pH 5
Procedure: Redox activity in cells was examined using an established in vitro method examining 2′,7′-dichlorodihydrofluorescein (H2DCF) oxidation to fluorescent 2′,7′-dichlorofluorescein (DCF) at cytosolic pH (pH 7.4 using HBSS buffer) relative to lysosomal pH (pH 5; acetate buffer; Fig. 5).[25,26,28,42,46] To these buffers containing the complexes, L-cysteine (100 μM) was added as a reducing agent, followed by H2DCF (5 μM). Then, hydrogen peroxide (H2O2; 100 μM) was added to initiate hydroxyl radical generation. Both [Cu(DpC)Cl2] and [Cu(DpC)2] were used as positive controls due to their documented redox activity.[28,42] In contrast, the ligand, DpC, was implemented as a negative control, as it is redox inert.[28,42] As an additional control, the established Cu chelator, tetrathiomolybdate (TM), was utilized to remove Cu from the thiosemicarbazone complexes to indicate its role in their redox activity.[27,28,42] Additionally, UV-vis spectroscopy (300–700 nm) of the same solution for each complex was also performed to understand both the oxidation of H2DCF and the formation of fluorescent DCF upon excitation at 503 nm (Fig. S20A–F and S21A–F ^†). […]
ROS Generation Analysis with H 2DCF-DA
The generation of reactive oxygen species (ROS) was assessed by examining the oxidation of H2DCF.2, 8, 13, 14 Solutions containing CuCl2, TM, DpC, Dp4e4mT, [Fe(DpC)2]+, [Cu(DpC)Cl2], [Cu(DpC)2] and the Dp4e4mT complexes were prepared at a concentration of 10 µM in either HBSS (pH 7.4) or 150 mM acetate buffer (pH 5) to simulate the conditions of the cytosol and lysosome, respectively.2, 8, 14, 15 The H2DCF was prepared by deacetylation of DCFH-DA (Sigma-Aldrich) through alkaline hydrolysis using NaOH. 16
In these prepared solutions, L-cysteine (100 µM) was added as a reducing agent and then H2DCF (5 µM) added. The initiation of hydroxyl radical generation was achieved by the addition of hydrogen peroxide (H2O2; 100 µM). As a comparative benchmark, HBSS or acetate buffer containing L-cysteine, H2DCF, and H2O2, but lacking ligands or metal complexes, was employed as a control. Fluorescence measurements were carried out using a CLARIOstar Plus microplate reader (BMG LABTECH, Australia) with an excitation wavelength of 485 nm and an emission wavelength of 530 nm. 8, 14

AsPC-1 cells = experiment: MTT cellular proliferation assay, AsPC-1 pancreatic adenocarcinoma cells; type: cell-based, human; details: for IC50: 37 °C, MTT, mean ± SD (3 experiments); for Therapeutic index AsPC-1: IC50 of MRC-5 cells/IC50 of AsPC-1 cells, 72 h/37 °C
Procedure: (§1) The anti-proliferative activity of Dp4e4mT relative to its complexes with Fe(III), Co(III), Ni(II), Cu(II), Zn(II), Ga(III), and Pd(II) was examined over incubation periods of 24-, 48-, and 72 h/37 °C (Table 2). These studies were performed using human SK-N-MC neuroepithelioma and AsPC-1 pancreatic adenocarcinoma cells that we have previously examined to assay other ligands.[15,28,43] […]
(§2) All cell lines were procured from the American Type Culture Collection (ATCC; Manassas, VA). The SK-N-MC neuroepithelioma cell line and the mortal MRC-5 fibroblasts were cultured in minimum essential medium (Sigma-Aldrich), while the AsPC-1 cell line was cultured in Roswell Park Memorial Institute 1640 medium (Thermo Fisher Scientific, MA, USA). Both media were supplemented with 10% fetal calf serum, non-essential amino acids (1 mM), sodium pyruvate (1 mM), L-glutamine (2 mM), penicillin (100 U/mL), streptomycin (100 U/mL), and Fungizone (0.5 µg/mL). Cells were maintained at 37 °C in an incubator under a humidified atmosphere with 5% CO 2, following established protocols. 11 Cellular Proliferation Assay
(§3) Cellular proliferation was evaluated through the established 3-(4,5-dimethylthiazol-2-yl)-2,5-diphenyltetrazolium bromide (MTT) proliferation assay, validated by viable cell counts.12 […]
(§4) Ligands and complexes were dissolved in DMSO to make a stock solution of 10 mM, subsequently diluted in culture media. For cell culture experiments, the DMSO's maximum concentration remained below 0.5% (v/v), with no discernible impact on proliferation.12 MTT […]
(§5) Trypan blue staining.12 Analysis of the data was executed employing MARS Data Analysis Software (BMG LabTech; version 3.30). The concentration of agents necessary to inhibit cellular proliferation by 50% (IC 50) was then calculated. […]

[1] = Transmetallation kinetics with FeCl3 in DMSO (time-resolved UV-vis); type: physicochemical; details: for Observed pseudo first order rate constant kobs, FeCl3: 10-fold excess of FeCl3 in DMSO, 25 °C
Procedure: The capacity of the Fe(III), Ni(II), Co(III), Zn(II), Ga(III), and Pd(II) complexes of Dp4e4mT to transmetallate with Cu(II) and/or Fe(III) to result in redox active Cu(II) and Fe(III) complexes could be critical in understanding their anti-proliferative efficacy, redox activity, and ability to oxidize oxy-Mb and oxy-Hb. To examine this, LC-MS spectrometry was performed in DMSO after the addition of 1 equivalent of FeCl3 or Cu(OAc)2 and the solutions then incubated for 24 h/20 °C due to slow reaction kinetics. This solution was then diluted 1 : 1 in methanol and LC-MS performed using a mobile phase consisting of 90% MeOH, 9.9% water, and 0.1% formic acid (Fig. S2–S9 ^†). These investigations were supported by EPR studies in DMSO after the addition of 1 equivalent of FeCl3 or Cu(OAc)2 incubated under the same conditions (Fig. 3A–G). As a third method to investigate transmetallation, kinetic studies using time-resolved UV-vis spectroscopy were performed under pseudo-first order conditions with a 10-fold excess of FeCl3 or Cu(OAc)2 in DMSO (Fig. S11–S16 ^†). The pseudo-first order rate constants were calculated from the time-dependent UV-vis spectroscopy data (at all wavelengths) with Reactlab Kinetics[49] and collected in Table S2. ^† […]
Time-dependent UV-Vis absorption spectra were measured on an Agilent 8453 diode array UV−Vis spectrophotometer, equipped with a thermostatted (± 0.1 °C) multicell transport cooled by a Huber Ministat 230 recirculating cooling bath. Spectral analysis was carried out with Reactlab Kinetics. 10 […]
Table S2. Observed pseudo first order rate constants (k obs, s−1) for reactions of each Dp4e4mT complex with a 10-fold excess of Cu(OAc) 2 or FeCl 3 in DMSO or water (pH 7.4 or 5.0) at 25 °C. […]
[Co(Dp4e4mT)2]+ No reaction No reaction No reaction No reaction […]
a Reaction could not be deciphered by UV-Vis spectroscopy; bchlorido ligand hydrolysis

SK-N-MC cells = experiment: MTT cellular proliferation assay, SK-N-MC neuroepithelioma cells; type: cell-based, human; details: for Therapeutic index SK-N-MC: IC50 of MRC-5 cells/IC50 of SK-N-MC cells, 72 h/37 °C; for IC50: SK-N-MC, 37 °C, MTT, mean ± SD (3 experiments)
Procedure: as §1, §2, §3, §4, §5

Structure (SMILES)	DCF fluorescence (H2DCF oxidation) of agent alone (H2DCF)	IC50 (AsPC-1 cells; AsPC-1, 24 h) [nM]	IC50 (AsPC-1 cells; AsPC-1, 48 h) [nM]	IC50 (AsPC-1 cells; AsPC-1, 72 h) [nM]	Therapeutic index AsPC-1 (AsPC-1 cells)	Observed pseudo first order rate constant kobs, FeCl3 [1]	Therapeutic index SK-N-MC (SK-N-MC cells)	IC50 (SK-N-MC cells; 24 h) [nM]	IC50 (SK-N-MC cells; 48 h) [nM]	IC50 (SK-N-MC cells; 72 h) [nM]	DCF fluorescence (H2DCF oxidation) after addition of CuCl2 (H2DCF)	IC50 (AsPC-1 cells; AsPC-1, 24 h, listed as Dp4e4mT Ga(III) complex) [nM]	t½, transmetallation with FeCl3 ([1]; FeCl3 in DMSO) [h]	IC50 (SK-N-MC cells; 24 h, listed as Dp4e4mT Ga(III) complex) [nM]	extent of reaction with Fe(III) ([1]; DMSO, after 3 days) [%]
CCN(C)C([S-])=NN=C(c1ccccn1)c1ccccn1.[Cl-].[Cu+2] [[Cu(Dp4e4mT)Cl]]	greatest efficacy at increasing DCF fluorescence	1074 ± 6	42 ± 6	3 ± 1	130	No reaction	130	492 ± 34	31 ± 8	3 ± 1					
CCN(C)C([S-])=NN=C(c1ccccn1)c1ccccn1.CCN(C)C([S-])=NN=C(c1ccccn1)c1ccccn1.[Fe+3] [[Fe(Dp4e4mT)2]^+]	markedly and significantly (p < 0.0001) less redox active	22380 ± 58	1580 ± 77	201 ± 31	9		9	2680 ± 71	1530 ± 37	214 ± 5	markedly and significantly (p < 0.0001–0.001) increased DCF fluorescence				
CCN(C)C([S-])=NN=C(c1ccccn1)c1ccccn1.CCN(C)C([S-])=NN=C(c1ccccn1)c1ccccn1.[Ga+3] [[Ga(Dp4e4mT)2]^+]		2431 ± 15	47 ± 6	5 ± 1	154		192	16220 ± 7	43 ± 6	4 ± 1	markedly and significantly (p < 0.0001–0.001) increased DCF fluorescence	1730 to 2430	3 to 4	16200 to 19400	
CCN(C)C([S-])=NN=C(c1ccccn1)c1ccccn1.CCN(C)C([S-])=NN=C(c1ccccn1)c1ccccn1.[Ni+2] [[Ni(Dp4e4mT)2]]		> 25000	234 ± 83	76 ± 54	62	No reaction; also recorded: unreactive	250	> 25000	75 ± 25	18 ± 6	markedly and significantly (p < 0.0001–0.001) increased DCF fluorescence				~20
